# Test results from patent US4235905A, “1H-Pyrimido[4,5-c]-1,2-diazepines” (Burroughs Wellcome Co., priority 1977, dated 1980).
# Where two headings read alike, the source gives them in different places.
# Experiments:
# [1] = tested on: Eimeria tenella (Weybridge); assay: Anti-coccidial activity in vitro, chick embryo liver cell cultures with Eimeria tenella sporozites; format: cell-based; settings: for Activity, Alone: compound alone; for Activity, With DV/SQX: with sulphaquinoxaline (0.01 μg/ml) and diaveridine (0.031 μg/ml); for minimal effective concentration: Eimeria tenella, read-out: minimum active anti-coccidial amount
# Procedure: The anti-coccidial activity of compounds of formula (III) alone and in combination with a mixture of diaveridine (DV) and sulphaquinoxaline (SQX) in vitro was tested according to the following procedure.
# Using standard test procedures employing primary explant cultures of chick embryo liver cells and a suspension of Eimeria tenella (Weybridge) sporozites the activity of the compounds was determined at various concentrations. In the above test, each test compound was used either alone or in combination with sulphaquinoxaline (0.01 μg/ml) and diaveridine (0.031 μg/ml). It should be noted that the minimum active anti-coccidial amounts of sulphaquinoxaline and diaveridine are 0.024 μg/ml and 0.098 μg/ml respectively.
# The following results were obtained wherein activity is expressed as follows: […]
# LD50 in mice = settings: mouse, in vivo, ip
# Procedure: By standard techniques the LD50 values of the following compounds of formula (I) were determined in mice.
# Staphylococcus aureus = assay: Antibacterial activity of trimethoprim and sulphamethoxazole alone and in combination with compounds of formula (II) (activity index); format: cell-based; settings: compound of formula (II) at 50 μg/ml, viable counts after 24 hours incubation of 10^6 organisms per ml; for activity index, SMX: in combination with sulphamethoxazole (SMX); for activity index, TMP: in combination with trimethoprim (TMP)
# Procedure: The antibacterial activity against Staphylococcus aureus of trimethoprim (TMP) and sulphamethoxazole (SMX) alone and in combination with compounds of formula (II) were compared.
# The results shown in the table are expressed as an activity index which is: [formula] the effect of the compounds being measured by viable counts after 24 hours incubation of 10^6 organisms per ml.
# In this test, the compounds of formula (II) were present at 50 μg/ml.
# An activity index ≥2 is indicative of substantial potentiation: […]
# [2] = tested on: Weybridge strain of Eimeria tenella; assay: Anti-coccidial activity in vivo in chicks, caecal lesion score; settings: compound 200 ppm in diet with DV 20 ppm and SQX 20 ppm, sixth day after infection, scale 0-3, dead = 4
# Procedure: Compounds of formula (III) were tested for anti-coccidial activity in vivo in combination with diaveridine (DV) and sulphaquinoxaline (SQX), each at 20 ppm, according to the following procedure. Groups of five, one week old chicks were each injected orally with 6,000 sporulated o cysts of the Weybridge strain of Eimeria tenella. Drugs were administered in LD 5 chick mash deficient in Vitamin K, beginning on the day of infection and continuing for 7 days. On the sixth day after infection, caecal lesions of surviving chicks were scored on a scale of 0, 1, 2 or 3 and any dead chicks were scored as 4.
smiles,measurement,setting,value
"CN1N=C(c2ccccc2)C=C(c2ccccc2)c2c1nc(N)[nH]c2=O [Example 1, 8-Amino-3,5-diphenyl-1-methyl-1H-pyrimido{4,5-c}-1,2-diazepin-6(7H)-one]","Activity, Alone",[1]; concentration 25 μg/ml,4 (1-25% parasite development)
same,"Activity, With DV/SQX",[1]; concentration 25 μg/ml,4 (1-25% parasite development)
"CC1=CC(C)=NN(C)c2nc(N)[nH]c(=O)c21 [Example 2, 8-Amino-1,3,5-trimethyl-1H-pyrimido{4,5-c}-1,2-diazepin-6(7H)-one]",LD50,LD50 in mice,~500 mg/kg
"COC(=O)C1=NN(C)c2nc(N)[nH]c(=O)c2C(c2cccc(O)c2)=C1 [Example 3, 8-Amino-3-carbomethoxy-5-(3-hydroxyphenyl)-1-methyl-1H-pyrimido{4,5-c}-1,2-diazepin-6(7H)-one]","activity index, SMX",Staphylococcus aureus,2.7
same,"activity index, TMP",Staphylococcus aureus,0.9
"CCOC(=O)C1=NN(C)c2nc(N)[nH]c(=O)c2C(c2ccccc2)=C1 [Example 5, 8-Amino-3-carbethoxy-1-methyl-5-phenyl-1H-pyrimido-{4,5-c}-1,2-diazepin-6(7H)-one]","activity index, SMX",Staphylococcus aureus,> 2.8
same,"activity index, TMP",Staphylococcus aureus,2.0
"COC(=O)C1=NN(C)c2nc(N)[nH]c(=O)c2C(c2cc(OC)c(OC)c(OC)c2)=C1 [Example 6, 8-Amino-3-carbomethoxy-1-methyl-5-(3,4,5-trimethoxyphenyl)-1H-pyrimido{4,5-c}-1,2-diazepin-6(7H)-one]",Lesion score,[2],0.6
same,"Activity, Alone",[1]; concentration 1.56 μg/ml,2 (51-75% parasite development)
same,"Activity, Alone",[1]; concentration 6.25 μg/ml,3 (26-50% parasite development)
same,"Activity, Alone",[1]; concentration 25 μg/ml,3 (26-50% parasite development)
same,"Activity, Alone",[1]; concentration 100 μg/ml,3 (26-50% parasite development)
same,"Activity, With DV/SQX",[1]; concentration 1.56 μg/ml,3 (26-50% parasite development)
same,"Activity, With DV/SQX",[1]; concentration 6.25 μg/ml,3 (26-50% parasite development)
same,"Activity, With DV/SQX",[1]; concentration 25 μg/ml,4 (1-25% parasite development)
same,"Activity, With DV/SQX",[1]; concentration 100 μg/ml,5
"CCOC(=O)C1=NN(C)c2nc(N)[nH]c(=O)c2C(c2ccc(OC)cc2OC)=C1 [Example 7, 8-Amino-3-carbethoxy-1-methyl-5-(2,4-dimethoxyphenyl)1H-pyrimido{4,5-c}-1,2-diazepin-6(7H)-one]",Lesion score,[2],1.2
same,"Activity, Alone",[1]; concentration 1.56 μg/ml,0 (95-100% parasite development)
same,"Activity, Alone",[1]; concentration 6.25 μg/ml,2 (51-75% parasite development)
same,"Activity, Alone",[1]; concentration 25 μg/ml,4 (1-25% parasite development)
same,"Activity, Alone",[1]; concentration 100 μg/ml,4 (1-25% parasite development)
same,"Activity, With DV/SQX",[1]; concentration 1.56 μg/ml,2 (51-75% parasite development)
same,"Activity, With DV/SQX",[1]; concentration 6.25 μg/ml,3 (26-50% parasite development)
same,"Activity, With DV/SQX",[1]; concentration 25 μg/ml,5
same,"Activity, With DV/SQX",[1]; concentration 100 μg/ml,5
"COc1ccc(Cc2cnc(N)nc2N)cc1OC [diaveridine, reference compound]",minimal effective concentration,[1],0.098 µg/mL
COC(=O)C1=NN(C)c2nc(N)[nH]c(=O)c2C(c2cc(OC)c(OC)c(OC)c2)=C1 [drawing 31],LD50,LD50 in mice,> 500 mg/kg
"Nc1ccc(S(=O)(=O)Nc2cnc3ccccc3n2)cc1 [sulphaquinoxaline, reference compound]",minimal effective concentration,"[1]; in vitro, alone",0.024 µg/mL
